Values joined by “and” are separate entries in the source; they are usually repeats but may differ in a detail not shown here. Identical values can stand only once.
Tests used:
Experiment in all cases: radiometric filter-binding kinase assay, Kinase HotSpot
Settings in all cases: compound 0.5 µM; ATP 10 µM
[1] = target: AKT1 (human) (UniProt P31749)
[2] = target: BLK (human) (UniProt P51451)
[3] = target: CAMK2B (human) (UniProt Q13554)
[4] = target: CAMK4 (human) (UniProt Q16566)
[5] = target: CDK1 CCNA2 (human) (UniProt P06493+P20248)
[6] = target: CDK4 CCND1 (human) (UniProt P24385+P11802)
[7] = target: CSNK1G1 (human) (UniProt Q9HCP0)
[8] = target: DAPK1 (human) (UniProt P53355)
[9] = target: DCLK2 (human) (UniProt Q8N568)
DCLK2 (human), sequence (Q8N568 whole entry, looked up): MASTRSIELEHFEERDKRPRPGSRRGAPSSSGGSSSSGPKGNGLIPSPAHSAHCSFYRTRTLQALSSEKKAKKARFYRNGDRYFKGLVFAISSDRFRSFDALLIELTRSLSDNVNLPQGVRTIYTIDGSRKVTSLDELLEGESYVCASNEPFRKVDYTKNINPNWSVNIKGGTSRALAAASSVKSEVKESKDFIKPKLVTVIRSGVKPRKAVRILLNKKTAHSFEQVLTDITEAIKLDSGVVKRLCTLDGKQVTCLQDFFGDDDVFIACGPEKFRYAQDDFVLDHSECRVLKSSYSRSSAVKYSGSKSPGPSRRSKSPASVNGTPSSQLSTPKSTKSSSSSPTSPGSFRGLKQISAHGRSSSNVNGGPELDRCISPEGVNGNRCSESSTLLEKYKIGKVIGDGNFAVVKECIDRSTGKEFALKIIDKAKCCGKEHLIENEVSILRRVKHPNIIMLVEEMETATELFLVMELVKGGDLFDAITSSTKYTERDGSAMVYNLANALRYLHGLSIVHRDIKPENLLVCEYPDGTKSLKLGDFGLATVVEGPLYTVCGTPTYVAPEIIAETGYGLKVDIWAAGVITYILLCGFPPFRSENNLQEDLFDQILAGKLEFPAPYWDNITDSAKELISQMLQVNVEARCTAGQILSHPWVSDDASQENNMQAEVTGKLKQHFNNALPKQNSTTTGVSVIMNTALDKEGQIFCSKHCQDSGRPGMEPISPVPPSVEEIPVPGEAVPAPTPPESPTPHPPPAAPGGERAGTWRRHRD

[10] = target: DMPK (human) (UniProt Q09013)
[11] = target: FER (human) (UniProt P16591)
[12] = target: FLT1 (human) (UniProt P17948)
[13] = target: GRK6 (human) (UniProt P43250)
GRK6 (human), sequence (P43250 whole entry, looked up): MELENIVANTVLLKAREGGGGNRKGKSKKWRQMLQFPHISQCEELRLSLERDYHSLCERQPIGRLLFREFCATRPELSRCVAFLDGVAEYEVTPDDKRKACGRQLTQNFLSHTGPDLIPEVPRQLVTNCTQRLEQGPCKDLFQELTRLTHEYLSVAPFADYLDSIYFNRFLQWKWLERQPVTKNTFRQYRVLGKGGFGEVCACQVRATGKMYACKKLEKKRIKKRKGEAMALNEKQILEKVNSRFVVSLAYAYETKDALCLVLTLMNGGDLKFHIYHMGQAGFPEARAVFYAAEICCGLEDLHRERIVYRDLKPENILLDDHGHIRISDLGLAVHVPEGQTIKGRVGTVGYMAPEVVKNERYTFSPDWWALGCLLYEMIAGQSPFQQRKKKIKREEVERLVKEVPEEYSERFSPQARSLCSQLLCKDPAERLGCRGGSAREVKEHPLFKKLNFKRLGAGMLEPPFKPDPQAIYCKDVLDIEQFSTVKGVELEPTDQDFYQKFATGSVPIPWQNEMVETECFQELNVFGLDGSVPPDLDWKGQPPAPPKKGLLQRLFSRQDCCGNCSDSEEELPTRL

[14] = target: HCK (human) (UniProt P08631)
[15] = target: IRAK4 (human) (UniProt Q9NWZ3)
IRAK4 (human), sequence (Q9NWZ3 whole entry, looked up): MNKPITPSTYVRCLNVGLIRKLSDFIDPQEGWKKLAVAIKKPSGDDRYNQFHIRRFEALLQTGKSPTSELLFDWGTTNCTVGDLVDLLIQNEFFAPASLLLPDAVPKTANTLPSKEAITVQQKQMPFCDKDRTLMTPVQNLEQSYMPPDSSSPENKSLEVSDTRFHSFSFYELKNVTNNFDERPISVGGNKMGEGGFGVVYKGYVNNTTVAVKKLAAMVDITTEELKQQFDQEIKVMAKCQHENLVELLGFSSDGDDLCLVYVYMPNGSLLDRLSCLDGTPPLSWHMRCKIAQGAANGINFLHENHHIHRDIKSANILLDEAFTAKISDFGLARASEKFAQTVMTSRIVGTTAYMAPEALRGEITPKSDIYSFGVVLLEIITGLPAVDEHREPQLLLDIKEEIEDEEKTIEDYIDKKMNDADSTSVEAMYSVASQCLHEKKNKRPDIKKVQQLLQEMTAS

[16] = target: JAK1 JH1 catalytic (human) (UniProt P23458)
[17] = target: JAK2 JH1 JH2 (human) (UniProt O60674)
[18] = target: LCK (human) (UniProt P06239)
LCK (human), sequence (P06239 whole entry, looked up): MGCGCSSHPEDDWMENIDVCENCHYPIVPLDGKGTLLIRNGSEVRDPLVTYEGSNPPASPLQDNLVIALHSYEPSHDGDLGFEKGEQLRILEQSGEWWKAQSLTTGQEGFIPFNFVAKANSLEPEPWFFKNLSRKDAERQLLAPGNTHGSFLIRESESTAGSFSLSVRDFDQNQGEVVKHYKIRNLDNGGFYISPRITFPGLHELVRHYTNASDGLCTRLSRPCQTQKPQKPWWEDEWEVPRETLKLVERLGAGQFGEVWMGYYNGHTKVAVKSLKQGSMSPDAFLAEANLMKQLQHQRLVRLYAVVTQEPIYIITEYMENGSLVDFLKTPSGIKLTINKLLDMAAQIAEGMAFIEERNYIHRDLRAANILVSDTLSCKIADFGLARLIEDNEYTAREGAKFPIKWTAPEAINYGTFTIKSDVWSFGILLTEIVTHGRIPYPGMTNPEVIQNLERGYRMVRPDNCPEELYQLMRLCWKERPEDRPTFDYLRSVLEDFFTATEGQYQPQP

[19] = target: LYN (human) (UniProt P07948)
LYN (human), sequence (P07948 whole entry, looked up): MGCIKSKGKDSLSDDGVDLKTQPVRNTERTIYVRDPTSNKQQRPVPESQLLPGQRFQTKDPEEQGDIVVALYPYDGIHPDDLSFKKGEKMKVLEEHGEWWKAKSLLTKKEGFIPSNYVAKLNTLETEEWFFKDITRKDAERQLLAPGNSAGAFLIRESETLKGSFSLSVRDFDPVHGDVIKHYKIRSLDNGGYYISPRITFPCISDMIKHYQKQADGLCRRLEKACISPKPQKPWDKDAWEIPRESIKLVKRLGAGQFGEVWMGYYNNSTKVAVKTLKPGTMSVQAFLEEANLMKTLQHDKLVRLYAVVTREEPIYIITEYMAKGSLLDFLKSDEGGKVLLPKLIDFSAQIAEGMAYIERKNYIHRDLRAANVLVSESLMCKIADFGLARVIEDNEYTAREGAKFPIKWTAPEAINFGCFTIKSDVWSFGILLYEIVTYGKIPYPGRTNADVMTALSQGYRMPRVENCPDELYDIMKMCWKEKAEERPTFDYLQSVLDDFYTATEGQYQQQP

[20] = target: MAPK14 (human) (UniProt Q16539)
[21] = target: MAPK9 (human) (UniProt P45984)
[22] = target: MAPKAPK3 (human) (UniProt Q16644)
[23] = target: NEK9 (human) (UniProt Q8TD19)
[24] = target: PAK1 (human) (UniProt Q13153)
[25] = target: PAK2 (human) (UniProt Q13177)
[26] = target: PASK (human) (UniProt Q96RG2)
[27] = target: PDGFRA (human) (UniProt P16234)
[28] = target: PDPK1 (human) (UniProt O15530)
PDPK1 (human), sequence (O15530 whole entry, looked up): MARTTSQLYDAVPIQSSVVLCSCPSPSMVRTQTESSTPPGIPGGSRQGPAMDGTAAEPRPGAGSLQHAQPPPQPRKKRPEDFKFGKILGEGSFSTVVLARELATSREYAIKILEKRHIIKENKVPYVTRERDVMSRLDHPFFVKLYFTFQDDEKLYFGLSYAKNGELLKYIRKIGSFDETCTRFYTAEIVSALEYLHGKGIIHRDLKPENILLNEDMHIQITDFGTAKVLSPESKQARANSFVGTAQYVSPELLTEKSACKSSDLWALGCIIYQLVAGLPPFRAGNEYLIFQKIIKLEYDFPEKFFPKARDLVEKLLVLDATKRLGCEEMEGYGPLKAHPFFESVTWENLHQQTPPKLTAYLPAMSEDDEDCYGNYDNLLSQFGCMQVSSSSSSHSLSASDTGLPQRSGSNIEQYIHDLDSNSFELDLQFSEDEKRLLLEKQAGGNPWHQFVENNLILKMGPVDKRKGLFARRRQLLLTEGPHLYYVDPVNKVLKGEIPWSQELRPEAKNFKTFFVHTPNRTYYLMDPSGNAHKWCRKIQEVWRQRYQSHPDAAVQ

[29] = target: PIM1 (human) (UniProt P11309)
[30] = target: PLK3 (human) (UniProt Q9H4B4)
[31] = target: PRKCH (human) (UniProt P24723)
[32] = target: PRKD3 (human) (UniProt O94806)
[33] = target: ROS1 (human) (UniProt P08922)
[34] = target: RPS6KA1 KD1 KD2 (human) (UniProt Q15418)
[35] = target: RPS6KB2 (human) (UniProt Q9UBS0)
[36] = target: SRPK1 (human) (UniProt Q96SB4)
SRPK1 (human), sequence (Q96SB4 whole entry, looked up): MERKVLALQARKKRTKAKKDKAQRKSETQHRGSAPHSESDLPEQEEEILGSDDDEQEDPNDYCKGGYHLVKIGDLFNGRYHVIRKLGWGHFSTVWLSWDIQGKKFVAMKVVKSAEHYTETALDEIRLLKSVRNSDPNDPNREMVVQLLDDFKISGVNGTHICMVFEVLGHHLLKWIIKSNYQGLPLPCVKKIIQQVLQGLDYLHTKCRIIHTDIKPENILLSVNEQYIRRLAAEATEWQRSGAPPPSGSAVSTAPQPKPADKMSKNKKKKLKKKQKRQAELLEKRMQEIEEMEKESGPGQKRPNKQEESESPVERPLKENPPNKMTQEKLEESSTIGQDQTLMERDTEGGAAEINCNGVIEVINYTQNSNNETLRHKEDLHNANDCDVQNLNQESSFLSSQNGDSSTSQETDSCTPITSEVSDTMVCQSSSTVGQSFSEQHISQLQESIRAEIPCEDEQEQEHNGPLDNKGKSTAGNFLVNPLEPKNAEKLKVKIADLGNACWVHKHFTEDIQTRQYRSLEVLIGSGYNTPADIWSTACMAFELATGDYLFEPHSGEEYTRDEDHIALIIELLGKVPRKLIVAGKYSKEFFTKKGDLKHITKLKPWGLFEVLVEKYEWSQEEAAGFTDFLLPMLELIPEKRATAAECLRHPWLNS

[37] = target: TAOK1 (human) (UniProt Q7L7X3)
[38] = target: TBK1 (human) (UniProt Q9UHD2)
[39] = target: TLK2 (human) (UniProt Q86UE8)
[40] = target: TNK2 (human) (UniProt Q07912)
[41] = target: WEE1 (human) (UniProt P30291)
[42] = target: ZAP70 (human) (UniProt P43403)

AKT1 (human), sequence (P31749 whole entry, looked up): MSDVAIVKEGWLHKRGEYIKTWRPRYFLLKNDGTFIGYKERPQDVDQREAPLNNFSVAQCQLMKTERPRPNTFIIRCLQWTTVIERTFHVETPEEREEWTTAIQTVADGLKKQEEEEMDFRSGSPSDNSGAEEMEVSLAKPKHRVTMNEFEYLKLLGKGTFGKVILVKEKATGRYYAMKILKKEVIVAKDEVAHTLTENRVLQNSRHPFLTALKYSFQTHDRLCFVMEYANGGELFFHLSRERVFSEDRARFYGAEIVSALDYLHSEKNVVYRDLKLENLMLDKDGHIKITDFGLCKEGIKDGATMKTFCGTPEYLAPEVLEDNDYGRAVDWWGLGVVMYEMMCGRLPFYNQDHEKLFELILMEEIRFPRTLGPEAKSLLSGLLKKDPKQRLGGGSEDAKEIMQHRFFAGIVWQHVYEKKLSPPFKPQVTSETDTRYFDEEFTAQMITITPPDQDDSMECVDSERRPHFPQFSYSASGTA
BLK (human), sequence (P51451 whole entry, looked up): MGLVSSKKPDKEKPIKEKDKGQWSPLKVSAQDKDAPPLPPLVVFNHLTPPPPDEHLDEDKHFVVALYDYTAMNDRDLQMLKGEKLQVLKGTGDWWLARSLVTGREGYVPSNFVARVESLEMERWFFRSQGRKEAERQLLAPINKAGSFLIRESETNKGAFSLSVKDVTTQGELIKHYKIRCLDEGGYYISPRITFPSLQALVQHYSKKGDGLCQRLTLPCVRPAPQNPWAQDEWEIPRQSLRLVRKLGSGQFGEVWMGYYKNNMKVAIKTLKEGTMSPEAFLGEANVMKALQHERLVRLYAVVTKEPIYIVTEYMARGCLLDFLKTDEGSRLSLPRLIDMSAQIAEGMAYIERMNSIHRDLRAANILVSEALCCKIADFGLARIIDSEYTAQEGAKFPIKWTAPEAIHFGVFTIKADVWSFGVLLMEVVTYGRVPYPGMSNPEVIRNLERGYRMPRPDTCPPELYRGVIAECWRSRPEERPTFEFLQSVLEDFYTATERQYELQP

O=C1NC(=O)/C(=C/c2ccc3c(c2)OC(F)(F)O3)S1
residual activity [1]: 98.2%
residual activity [2]: 99.2%
residual activity [3]: 99.8%
residual activity [4]: 101%
residual activity [5]: 97.2%
residual activity [6]: 97.1%
residual activity [7]: 75.5%
residual activity [8]: 120%
residual activity [9]: 99.7%
residual activity [10]: 97.5%
residual activity [11]: 97.2%
residual activity [12]: 81.5%
residual activity [13]: 95.4%
residual activity [14]: 89.8%
residual activity [15]: 99.2%
residual activity [16]: 104%
residual activity [17]: 92.9%
residual activity [18]: 98.3%
residual activity [19]: 98.1% and 99.9%
residual activity [20]: 86.7%
residual activity [21]: 90.9%
residual activity [22]: 94.2%
residual activity [23]: 109%
residual activity [24]: 93.3%
residual activity [25]: 99.9%
residual activity [26]: 78.2%
residual activity [27]: 103%
residual activity [28]: 100%
residual activity [29]: 35.9%
residual activity [30]: 92.4%
residual activity [31]: 92.7%
residual activity [32]: 91.4%
residual activity [33]: 88.5%
residual activity [34]: 71.1%
residual activity [35]: 101%
residual activity [36]: 105%
residual activity [37]: 90%
residual activity [38]: 93.3%
residual activity [39]: 104%
residual activity [40]: 93.3%
residual activity [41]: 88.8%
residual activity [42]: 99.2%

N#C/C(=C(/N)Sc1ccc(N)cc1)c1ccccc1C(F)(F)F
residual activity [1]: 101%
residual activity [2]: 111%
residual activity [3]: 93.5%
residual activity [4]: 110%
residual activity [5]: 91.2%
residual activity [6]: 106%
residual activity [7]: 89%
residual activity [8]: 104%
residual activity [9]: 99.1%
residual activity [10]: 102%
residual activity [11]: 105%
residual activity [12]: 85.4%
residual activity [13]: 100%
residual activity [14]: 93.9%
residual activity [15]: 89.8%
residual activity [16]: 106%
residual activity [17]: 98.7%
residual activity [18]: 107%
residual activity [19]: 107% and 98.5%
residual activity [20]: 96%
residual activity [21]: 110%
residual activity [22]: 102%
residual activity [23]: 99.2%
residual activity [24]: 94.3%
residual activity [25]: 98%
residual activity [26]: 101%
residual activity [27]: 99.5%
residual activity [28]: 103%
residual activity [29]: 99.7%
residual activity [30]: 96.9%
residual activity [31]: 96.4%
residual activity [32]: 96.8%
residual activity [33]: 94.4%
residual activity [34]: 88.7%
residual activity [35]: 105%
residual activity [36]: 96.5%
residual activity [37]: 98.3%
residual activity [38]: 98.1%
residual activity [39]: 92.5%
residual activity [40]: 100%
residual activity [41]: 73.8%
residual activity [42]: 102%

c1ccc(-c2n[nH]cc2-c2ccnc3ccccc23)nc1
residual activity [1]: 100%
residual activity [2]: 99.9%
residual activity [3]: 97.2%
residual activity [4]: 97.5%
residual activity [5]: 82.7%
residual activity [6]: 101%
residual activity [7]: 92.2%
residual activity [8]: 111%
residual activity [9]: 97.4%
residual activity [10]: 106%
residual activity [11]: 86%
residual activity [12]: 81.4%
residual activity [13]: 94.6%
residual activity [14]: 98.5%
residual activity [15]: 87.7%
residual activity [16]: 96.7%
residual activity [17]: 107%
residual activity [18]: 91.7%
residual activity [19]: 100% and 87.8%
residual activity [20]: 96%
residual activity [21]: 98.9%
residual activity [22]: 92.9%
residual activity [23]: 94.7%
residual activity [24]: 96.3%
residual activity [25]: 57%
residual activity [26]: 77.1%
residual activity [27]: 98.1%
residual activity [28]: 93.8%
residual activity [29]: 107%
residual activity [30]: 91.7%
residual activity [31]: 94.6%
residual activity [32]: 56.1%
residual activity [33]: 102%
residual activity [34]: 88.1%
residual activity [35]: 101%
residual activity [36]: 98.4%
residual activity [37]: 93%
residual activity [38]: 92.6%
residual activity [39]: 98.6%
residual activity [40]: 96.2%
residual activity [41]: 91.1%
residual activity [42]: 100%

CCN(CC)CCNC(=O)c1c(C)[nH]c(/C=C2\C(=O)Nc3ccc(Cl)cc32)c1C
residual activity [1]: 102%
residual activity [2]: 15.8%
residual activity [3]: 27.3%
residual activity [4]: 95%
residual activity [5]: 87.5%
residual activity [6]: 74.1%
residual activity [7]: 69.2%
residual activity [8]: 47.7%
residual activity [9]: 82.8%
residual activity [10]: 102%
residual activity [11]: 17.7%
residual activity [12]: 34.4%
residual activity [13]: 46.3%
residual activity [14]: 34.3%
residual activity [15]: 22.7%
residual activity [16]: 65.8%
residual activity [17]: 54%
residual activity [18]: 11.8%
residual activity [19]: 21.9% and 6.34%
residual activity [20]: 103%
residual activity [21]: 109%
residual activity [22]: 101%
residual activity [23]: 95.9%
residual activity [24]: 93.4%
residual activity [25]: 92.7%
residual activity [26]: 89.6%
residual activity [27]: 25.9%
residual activity [28]: 101%
residual activity [29]: 91.7%
residual activity [30]: 89.8%
residual activity [31]: 86.1%
residual activity [32]: 8.04%
residual activity [33]: 43.9%
residual activity [34]: 13.1%
residual activity [35]: 91.6%
residual activity [36]: 95.9%
residual activity [37]: 65.8%
residual activity [38]: 16.3%
residual activity [39]: 79.6%
residual activity [40]: 22.6%
residual activity [41]: 94.8%
residual activity [42]: 91.2%

— the kinase profiling compilation of Christmann-Franck et al. (2016)
